Test results from patent US20260272950A1, “METHOD OF TREATMENT OF A NEURONAL PATHOLOGY RELATED TO HYPOXIA, HYPOGLYCEMIA AND/OR HYPERGLYCEMIA” (priority 2019, published 2026).

Experiments:
[1] = tested on: primary culture of cortical neurons; assay: MTT neuronal survival evaluation test in in vitro model of ischemia/reperfusion (OGD); type: cell-based, mouse; details: for neuronal protection (MTT): Example 6, FIG. 6, 100 nM, 4 h of OGD then 24 h of reperfusion
Procedure: (§1) More specifically, the cells taken are grown in a Neurobasal™ medium (ref. 21103049 ThermoFisher Scientific) to which L-glutamine and B27 supplement 50X (ref. 17504044 ThermoFisher Scientific) have been added (step 2). The neurons from the primary culture are then isolated and purified. It should be noted that it is the culture conditions in themselves which make it possible to obtain a purified culture of neurons from the dissociation of the embryonic cortexes. Oxygen and glucose deprivation (OGD) is then carried out (step 3) on these neurons in order to mimic as closely as possible what happens in vivo during a stroke, that is to say a decrease in oxygen and glucose supply due to a decrease in blood perfusion for the cells. In order to carry out this oxygen and glucose deprivation mimicking ischemia, the neurons are placed, for 4 h, in an incubator of which the atmosphere has an oxygen content of approximately 1% and with the culture medium being replaced with a glucose-free medium (step 3). Since the ischemia model is an “ischemia/reperfusion” model, the neurons are then placed in a medium containing glucose under normoxic conditions for 24 h (reperfusion) (step 4) following the ischemia step. Neuron group A is a group of neurons having been treated with a solution of compound of formula (I) during the OGD and the reperfusion, that is to say that a molecule of table 1 is added to glucose-free medium as soon as the oxygen and glucose deprivation begins (step 3). […] The concentration of the other molecules of table 1 is 100 nmol·L^−1 in the glucose-free medium. Neuron group B is a group of neurons having been treated with a solution of DX243 during the reperfusion only (step 4), in order to be closer to what occurs clinically, namely the possible treatment only after several hours with a conventional treatment. The DX243 solution is added to the glucose-free medium as soon as the reperfusion begins (step 4). The DX243 concentration is between 1 nmol. L^−1 and 1 μmol·L^−1 in the glucose-free medium.
(§2) The negative control consists of a group of neurons undergoing OGD (step 3) followed by reperfusion (step 4) without DX243 being present. This group of neurons is called “Ctrl” in FIGS. 2 to 4. The normal control consists of a group of neurons from the primary culture placed under normoxic conditions for 28 h. The normal control is called “normox” in FIGS. 2 to 4. The positive control consists of a group of neurons from the primary culture having undergone OGD for 4 h (step 3) in the presence of roscovitine, which is a cell cycle inhibitor, leading to neuronal protection, followed by reperfusion for 24 h (step 4). The positive control is called “ROSCO” in FIGS. 2 to 4.
(§3) At the end of the reperfusion (step 4), 24 h after the OGD, the survival of the neurons is evaluated by means of three different tests: an immunocytochemical test 5, an MTT (3-(4,5-dimethylthiazol-2-yl)-2,5-diphenyltetrazolium bromide) test 6 and a test based on the cell membrane integrity via the use of trypan blue 7. The results are then compared to the results of the three control-group survival tests.
In order to confirm the results obtained with DX243, a test based on the metabolic activity of the neurons was carried out to evaluate neuronal survival in another way. This test is based on the use of the tetrazolium salt MTT (3-(4,5-dimethylthiazol-2-yl)-2,5-diphenyltetrazolium bromide). The tetrazolium is reduced, by the mitochondrial succinate dehydrogenase of the active live cells, into formazan, a purple-colored precipitate. The amount of precipitate formed is proportional to the amount of live cells but also to the metabolic activity of each cell. Thus, a simple assay of the optical density at 550 nm by spectroscopy makes it possible to determine the relative amount of live and metabolically active cells. […]

[2] = tested on: primary culture of cortical neurons; assay: Neuronal survival evaluation via trypan blue (cell membrane integrity) in in vitro model of ischemia/reperfusion (OGD); type: cell-based, mouse; details: for overall conclusion: neuroprotective effect against cerebral ischemia: conclusion drawn from all of the results (Examples 2 to 8); for neuronal protection (trypan blue): Example 7, FIG. 7, 4 h of OGD then 24 h of reperfusion
Procedure: as §1, §2, §3
A third cell survival test in the case of the use of DX243, based on cell membrane integrity, which is ruptured in dead cells, was carried out. The latter test uses trypan blue which will stain the dead cells blue. The calculation of the percentage of live cells was consequently performed by counting the proportion of blue and non-blue cells, and related to the percentage of live cells observed in the normox group. The results obtained were reported in graph A of FIG. 4 for group A and in graph B of FIG. 4 for group B.
For all the molecules of table I other than DX243 used on group A, the third cell survival test was carried out. The results obtained were reported on the graph of FIG. 5, with the results obtained with DX243 being included therein. The sign NT means not treated. […]

[3] = tested on: primary culture of cortical neurons; assay: Immunocytochemical test for neuronal survival (DAPI, CC3, TUJ1) in in vitro model of ischemia/reperfusion (OGD); type: cell-based, mouse
Procedure: as §1
The negative control consists of a group of neurons undergoing OGD (step 3) followed by reperfusion (step 4) without DX243 being present. This group of neurons is called “Ctrl” in FIGS. 2 to 4. […]
as §3, with “The results are then compared to the results of the three control-group survival tests.” left out
A first series of images is taken with chemical labelling by fluorescence. […] A second series of images is taken with labelling by fluorescence using the CC3 antibody. […]

[4] = tested on: male murine model of stroke, called Middle Cerebral Artery Occlusion (MCAO); assay: In vivo stroke test, Middle Cerebral Artery Occlusion (MCAO) followed by reperfusion; design: species or system mouse; details: DX243 50 mg/Kg at reperfusion after 1 h occlusion
[5] = Example 5, FIG. 5, group A, 100 nmol·L^−1 during 4 h OGD and 24 h reperfusion
[6] = concentration not printed in the sentence (100 nmol·L^−1 per Example 1)
[7] = 4 h OGD + 24 h reperfusion, DX243 treatment compared with the Ctrl group
[8] = observed at 24 h, vs non-treated (Ctrl) mice

SMILES	neuronal protection (MTT) [1]	overall conclusion: neuroprotective effect against cerebral ischemia [2]	survival rate compared with DX243 [2, 5]	further results
CC(C)CCCC(C)[C@H]1CCC2C3C[C@@H](NCCc4cnc[nH]4)[C@@]4(O)C[C@@H](O)CC[C@]4(C)C3CC[C@@]21C (some centres unmarked) [DX101]	neuroprotective effect	neuroprotective effect against cerebral ischemia		
CC(C)CCCC(C)[C@H]1CCC2C3=C[C@@H](NCCCNCCCCN)[C@@]4(O)C[C@@H](O)CC[C@]4(C)C3CC[C@@]21C (some centres unmarked) [DX242]	neuroprotective effect	neuroprotective effect against cerebral ischemia	greater than that of DX243	neuronal protection (trypan blue) [2, 6]: neuroprotective effect
CC(C)CCCC(C)[C@H]1CCC2C3C[C@@H](NCCCN(CCCCNC(=O)OC(C)(C)C)C(=O)OC(C)(C)C)[C@@]4(O)C[C@@H](O)CC[C@]4(C)C3CC[C@@]21C (some centres unmarked) [DX243BOC]			lower than that of the group treated with DX243	survival rate compared with NT neurons having undergone OGD and reperfusion [2, 5]: lower than that of the group treated with DX243 and than that of the NT group having undergone OGD and reperfusion
CC(C)CCCC(C)[C@H]1CCC2C3C[C@@H](NCCCNCCCCN)[C@@]4(O)C[C@@H](O)CC[C@]4(C)C3CC[C@@]21C (some centres unmarked) [DX243]	significant neuronal protection	neuroprotective effect against cerebral ischemia		protection against neuronal death ([3]; 4 h OGD + 24 h reperfusion, DX243 during OGD and reperfusion, or only during reperfusion, vs Ctrl group): partially protect against neuronal death; proportion of cells undergoing apoptosis (CC3 antibody, activated caspase 3) [3, 7]: decrease in the proportion of cells undergoing apoptosis; proportion of live cells [3, 7]: increase in the proportion of live cells; neuron protection, post-OGD treatment for 24 h (reperfusion only) compared with treatment during OGD and reperfusion ([3]; group B, DX243 only during 24 h reperfusion): protects the neurons even more efficiently; protection against decrease of metabolically active cells (survival) following OGD ([1]; 4 h OGD + 24 h reperfusion, groups A and B, vs Ctrl group): partially protects against this decrease in survival; effect in group treated only during reperfusion compared with group A ([1]; group B, DX243 only during the reperfusion for 24 h): all the more marked; percentage of live cells (membrane integrity) related to normox group ([2]; 4 h OGD + 24 h reperfusion, groups A and B, mainly 1 to 100 nmol·L^−1): restores the percentage of live cells to levels close to that observed in the normox group; neuronal protection (trypan blue) ([2]; 1000 nM): neuroprotective effect; neuronal protection (trypan blue) ([2]; concentrations ranging from 1 to 100 nM): significant neuronal protection; behavioral deficits (neuroscore) ([4]; observed at 24 h, living mice, vs non-treated (Ctrl) mice): decrease in the behavioral deficits; percentage of dead mice [4, 8]: decrease in the percentage of dead mice; size of the lesion (infarcted region, TTC staining) [4, 8]: decrease in the size of the lesion; correlation between the decrease in blood flow (Laser Doppler Flowmetry) and the consequences of the stroke ([4]; treated mice): there does not appear to be any correlation
CC(C)CCCC(C)[C@H]1CCC2C3=C[C@@H](NCCCCNCCCN)[C@@]4(O)C[C@@H](O)CC[C@]4(C)C3CC[C@@]21C (some centres unmarked) [DX244]	neuroprotective effect	neuroprotective effect against cerebral ischemia	greater than that of DX243	neuronal protection (trypan blue) [2, 6]: neuroprotective effect
CC(C)CCCC(C)[C@H]1CCC2C3C[C@@H](NCCCCNCCCN)[C@@]4(O)C[C@@H](O)CC[C@]4(C)C3CC[C@@]21C (some centres unmarked) [DX245]	significant neuronal protection	neuroprotective effect against cerebral ischemia	greater than that of DX243	neuronal protection (trypan blue) ([2]; 10 nM): neuroprotective effect; neuronal protection (trypan blue) ([2]; 100 nM): significant neuronal protection; neuronal protection (trypan blue) ([2]; 1000 nM): neuroprotective effect
CC(=O)NCCCNCCCCN[C@@H]1CC2C3CC[C@H](C(C)CCCC(C)C)[C@@]3(C)CCC2[C@@]2(C)CC[C@H](O)C[C@]12O (some centres unmarked) [DX249]	neuroprotective effect	neuroprotective effect against cerebral ischemia		
CC(C)CCCC(C)[C@H]1CCC2C3C[C@@H](NCCCNCCCCNCCCN)[C@@]4(O)C[C@@H](O)CC[C@]4(C)C3CC[C@@]21C (some centres unmarked) [DX301]	neuroprotective effect	neuroprotective effect against cerebral ischemia		
CC(C)CCCC(C)[C@H]1CCC2C3=C[C@@H](NCCCNCCCCNCCCN)[C@@]4(O)C[C@@H](O)CC[C@]4(C)C3CC[C@@]21C (some centres unmarked) [DX302]	neuroprotective effect	neuroprotective effect against cerebral ischemia		
CC(C)CCCC(C)[C@H]1CCC2C3C[C@@H](NCCCCN)[C@@]4(O)C[C@@H](O)CC[C@]4(C)C3CC[C@@]21C (some centres unmarked) [DX401]	neuroprotective effect	neuroprotective effect against cerebral ischemia		
